The structures appear in SMILES notation. Converted amounts (≈) assume the structure as drawn. Residues, ends and D or L forms follow the SMILES beside them. Where only a bound is given, the exact number is not on record here.

Broadly, the MIC is the lowest concentration that inhibits growth of the organism.

Settings in all cases: nutrient broth, 1 × 10^5 CFU/mL, peptide 0.1 to 50 μg/mL, O.D.600 at 18 h, MIC = growth inhibition greater than 90%, three independent experiments in triplicate
Assay [1] relates to K. pneumoniae ATCC27736 (DMST4739). Format: cell-based, Klebsiella pneumoniae. As for the experimental part:
(§1) The biological activities of MpVT and its analogs were investigated by assaying antimicrobial activities and by studying the hemolysis activity. The minimal inhibitory concentrations (MIC) of the peptides were determined based on methods described by Anunthawan et al.. […] The MpVT4-7 could not detect antibacterial activity when using a peptide concentration lower than 50 μg/mL. The E. coli strains that were the most susceptible against MpVT peptides were selected for visualizing the bacterial morphology when treated with these peptides using a scanning electron microscope. The normal and abnormal morphologies of bacteria cells were visualized after 60 min treatment with the MpVT peptides (Figure 6).
(§2) The microorganisms; Staphylococcus auerus ATCC 27,853 (DMST 4739), Staphylococcus auerus ATCC 25923, Bacillus subtilis ATCC663, Escherichia coli 0157:H7, Escherichia coli DH5α, and Klebsiella pneumoniae ATCC27736 (DMST4739) were used to determine the MIC of MpVT and its analogs. The bacterial strains were inoculated to enter their log phases, and then the suspension was diluted in nutrient broth. The microorganisms were prepared at a final concentration of 1 × 10^5 CFU/mL. The peptides’ concentrations, ranging from 0.1 to 50 μg/mL, were determined. Serial doubling dilutions of various concentrations of MpVTs were made into a nutrient broth to a final volume of 100 μL in each well of a 96-well plate. A% inhibition = 100 − (O.D.600 at 18 h − O.D.600 at immediate treatment × 100/O.D.600 at […] of control − O.D.600 at 18 h of control − O.D.600 at immediate treatment of control). (1)

The test system of assay [2] is P. aeruginosa ATCC 27,853 (DMST 4739). Format: cell-based. As for the experimental part: as §1, §2
Another assay concerns E. coli DH5α. Format: cell-based, Escherichia coli. As to the method:
as §1, §2

The test system of a further assay is E. coli 0157:H7. In kind it is cell-based, Escherichia coli. As to the method:
as §1, §2

The next assay deals with B. subtilis ATCC663. In kind it is cell-based, Bacillus subtilis. As to the method: as §1, §2
Another assay concerns S. aureus ATCC25923. In kind it is cell-based, Staphylococcus auerus. As to the method: as §1, §2

With `CC[C@H](C)[C@H](NC(=O)[C@H](Cc1ccccc1)NC(=O)[C@H](CC(C)C)NC(=O)[C@H](CCCCN)NC(=O)[C@H](C)NC(=O)[C@H](C)NC(=O)[C@H](Cc1ccccc1)NC(=O)[C@H](C)NC(=O)[C@H](C)NC(=O)[C@@H](NC(=O)[C@H](C)NC(=O)[C@@H](N)CCCCN)[C@@H](C)CC)C(=O)O` [MpVT7] (H-KAIAAFAAKLFI-OH), the minimal inhibitory concentration (MIC) is more than 50.00 µg/mL in assay [1]; more than 50.00 µg/mL in assay [2]; 6.25 µg/mL (≈ 4.95 µM) against E. coli DH5α; more than 50.00 µg/mL against E. coli 0157:H7; 50.00 µg/mL (≈ 39.6 µM) in the assay on B. subtilis ATCC663; more than 50.00 µg/mL against S. aureus ATCC25923.
Turning to `CC[C@H](C)[C@H](N)C(=O)N[C@@H](CC(N)=O)C(=O)N[C@@H](CC(C)C)C(=O)N[C@@H](CCCCN)C(=O)N[C@@H](C)C(=O)N[C@H](C(=O)N[C@@H](C)C(=O)N[C@@H](C)C(=O)N[C@@H](Cc1ccccc1)C(=O)N[C@@H](C)C(=O)N[C@@H](CCCCN)C(=O)N[C@@H](CCCCN)C(=O)N[C@@H](Cc1ccccc1)C(=O)N[C@H](C(=O)O)[C@@H](C)CC)[C@@H](C)CC` [MpVT1] (H-INLKAIAAFAKKFI-OH), the minimal inhibitory concentration (MIC) worked out at 6.25 µg/mL (≈ 4.04 µM) in assay [1]; 6.25 µg/mL (≈ 4.04 µM) in assay [2]; 0.39 µg/mL (≈ 0.252 µM) against E. coli DH5α; 6.25 µg/mL (≈ 4.04 µM) against E. coli 0157:H7; 3.125 µg/mL (≈ 2.02 µM) in the assay on B. subtilis ATCC663; 12.50 µg/mL (≈ 8.08 µM) in the assay on S. aureus ATCC25923.
Regarding `CC[C@H](C)[C@H](NC(=O)[C@H](Cc1ccccc1)NC(=O)[C@H](CCCCN)NC(=O)[C@H](CCCCN)NC(=O)[C@H](C)NC(=O)[C@H](Cc1ccccc1)NC(=O)[C@H](C)NC(=O)[C@H](C)NC(=O)[C@@H](NC(=O)[C@H](C)NC(=O)[C@@H](N)CCCCN)[C@@H](C)CC)C(=O)O` [MpVT4] (H-KAIAAFAKKFI-OH), the minimum inhibitory concentration (MIC) in assay [1] was more than 50.00 µg/mL; in assay [2] it was 25.0 µg/mL (≈ 20.7 µM); in the assay with E. coli DH5α it was 25.00 µg/mL (≈ 20.7 µM); with E. coli 0157:H7 it was more than 50.00 µg/mL; in the assay with B. subtilis ATCC663, more than 50.00 µg/mL; against S. aureus ATCC25923, more than 50.00 µg/mL.
Take `CC[C@H](C)[C@H](NC(=O)[C@H](Cc1ccccc1)NC(=O)[C@H](Cc1ccccc1)NC(=O)[C@H](CCCCN)NC(=O)[C@H](CCCCN)NC(=O)[C@H](C)NC(=O)[C@H](Cc1ccccc1)NC(=O)[C@H](C)NC(=O)[C@H](C)NC(=O)[C@@H](NC(=O)[C@H](C)NC(=O)[C@@H](N)CCCCN)[C@@H](C)CC)C(=O)O` [MpVT5] (H-KAIAAFAKKFFI-OH): the MIC was more than 50.00 µg/mL in assay [1]; more than 50.00 µg/mL in assay [2]; 6.25 µg/mL (≈ 4.61 µM) in the assay with E. coli DH5α; more than 50.00 µg/mL in the assay with E. coli 0157:H7; more than 50.00 µg/mL in the assay with B. subtilis ATCC663; more than 50.00 µg/mL against S. aureus ATCC25923.
For the molecule `CC[C@H](C)[C@H](N)C(=O)N[C@@H](CC(N)=O)C(=O)N[C@@H](CC(C)C)C(=O)N[C@@H](CCCCN)C(=O)N[C@@H](C)C(=O)N[C@H](C(=O)N[C@@H](C)C(=O)N[C@@H](C)C(=O)N[C@@H](Cc1ccccc1)C(=O)N[C@@H](C)C(=O)N[C@@H](CCCCN)C(=O)N[C@@H](C)C(=O)N[C@@H](CC(C)C)C(=O)N[C@H](C(=O)O)[C@@H](C)CC)[C@@H](C)CC` [MpVT3] (H-INLKAIAAFAKALI-OH), the MIC was found to be 25.00 µg/mL (≈ 17.2 µM) in assay [1]; 6.25 µg/mL (≈ 4.29 µM) in assay [2]; 0.78 µg/mL (≈ 0.535 µM) in the assay with E. coli DH5α; 50.00 µg/mL (≈ 34.3 µM) in the assay with E. coli 0157:H7; 12.50 µg/mL (≈ 8.58 µM) in the assay with B. subtilis ATCC663; 50.00 µg/mL (≈ 34.3 µM) in the assay with S. aureus ATCC25923.
As to `CC[C@H](C)[C@H](NC(=O)[C@H](Cc1ccccc1)NC(=O)[C@H](CC(C)C)NC(=O)[C@H](C)NC(=O)[C@H](CCCCN)NC(=O)[C@H](C)NC(=O)[C@H](Cc1ccccc1)NC(=O)[C@H](C)NC(=O)[C@H](C)NC(=O)[C@@H](NC(=O)[C@H](C)NC(=O)[C@@H](N)CCCCN)[C@@H](C)CC)C(=O)O` [MpVT6] (H-KAIAAFAKALFI-OH), the MIC is more than 50.00 µg/mL in assay [1]; more than 50.00 µg/mL in assay [2]; 12.50 µg/mL (≈ 9.89 µM) with E. coli DH5α; more than 50.00 µg/mL in the assay on E. coli 0157:H7; more than 50.00 µg/mL against B. subtilis ATCC663; more than 50.00 µg/mL in the assay with S. aureus ATCC25923.
For the molecule `CC[C@H](C)[C@H](N)C(=O)N[C@@H](CC(N)=O)C(=O)N[C@@H](CC(C)C)C(=O)N[C@@H](CCCCN)C(=O)N[C@@H](C)C(=O)N[C@H](C(=O)N[C@@H](C)C(=O)N[C@@H](C)C(=O)N[C@@H](Cc1ccccc1)C(=O)N[C@@H](C)C(=O)N[C@@H](CCCCN)C(=O)N[C@@H](CCCCN)C(=O)N[C@@H](CC(C)C)C(=O)N[C@H](C(=O)O)[C@@H](C)CC)[C@@H](C)CC` [MpVT] (H-INLKAIAAFAKKLI-OH), the minimum inhibitory concentration (MIC) in assay [1] was 25.00 µg/mL (≈ 16.5 µM); in assay [2], 25.00 µg/mL (≈ 16.5 µM); in the assay with E. coli DH5α it was 3.125 µg/mL (≈ 2.06 µM); with E. coli 0157:H7, 50.00 µg/mL (≈ 33 µM); in the assay on B. subtilis ATCC663, 25.00 µg/mL (≈ 16.5 µM); with S. aureus ATCC25923, 50.00 µg/mL (≈ 33 µM).

These data come from paper PMC8779355, “In Silico and In Vitro Structure–Activity Relationship of Mastoparan and Its Analogs” (Molecules, 2022).
